Data reported in patent US10494363B2, “Non-steroidal glucocorticoid receptor modulators for local drug delivery” (LEO PHARMA A/S, priority 2015, dated 2019).

What was measured:
[1] = target: T1, glucocorticoid receptor (GR), recombinant full-length receptor protein (Homo sapiens, UniProt P04150); assay: Glucocorticoid receptor binding assay (fluorescence polarization kit); settings: 4 nM receptor, 2.5 nM Fluormone GS1 tracer, 2h room temperature, read-out: GR binding ABS IC50
T1 construct: 4 nM recombinant, full-length receptor protein was incubated with increasing concentrations of GR ligand; purchased Life Technologies A-15897
T1 sequence (P04150 1-777): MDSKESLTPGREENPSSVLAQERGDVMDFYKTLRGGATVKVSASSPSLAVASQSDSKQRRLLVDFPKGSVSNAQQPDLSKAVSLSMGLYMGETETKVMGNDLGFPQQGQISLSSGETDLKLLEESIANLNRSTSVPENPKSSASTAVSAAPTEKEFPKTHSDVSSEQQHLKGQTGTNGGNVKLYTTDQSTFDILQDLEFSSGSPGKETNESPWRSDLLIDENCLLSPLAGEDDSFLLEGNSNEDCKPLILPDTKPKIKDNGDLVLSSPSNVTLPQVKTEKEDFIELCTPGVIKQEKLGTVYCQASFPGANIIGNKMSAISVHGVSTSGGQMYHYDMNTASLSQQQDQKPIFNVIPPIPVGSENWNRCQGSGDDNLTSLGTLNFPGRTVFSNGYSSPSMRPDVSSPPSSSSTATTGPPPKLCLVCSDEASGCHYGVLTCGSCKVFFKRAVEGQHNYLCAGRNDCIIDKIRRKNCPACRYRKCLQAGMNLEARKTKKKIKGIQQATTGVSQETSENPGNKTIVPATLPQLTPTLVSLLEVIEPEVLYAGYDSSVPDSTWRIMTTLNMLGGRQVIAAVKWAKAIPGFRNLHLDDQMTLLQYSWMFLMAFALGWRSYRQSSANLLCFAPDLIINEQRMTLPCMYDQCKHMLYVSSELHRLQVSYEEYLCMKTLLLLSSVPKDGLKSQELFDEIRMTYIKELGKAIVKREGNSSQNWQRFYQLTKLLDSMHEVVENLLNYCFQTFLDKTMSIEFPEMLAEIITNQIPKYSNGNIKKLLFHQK
Method: Test compounds were diluted in DMSO over seven orders of magnitude, further diluted in assay buffer and distributed into 384-well plates. The sensitivity limit of this assay was 2-4 nM.
Data were processed by sigmoidal curve fitting.
Absolute (Abs) IC50 and Emax were determined from the curve fits.

[2] = Human liver microsomes (HLM) assay; format: in vitro ADME; settings: hepatic extraction ratio; 0.5 μM compound, 0.5 mg/mL microsomes, NADPH, 37° C.
Method: Incubations of test compounds in DMSO, diluted with phosphate buffer, pH 7.4, at 0.5 μM were carried out with human liver microsomes (0.5 mg/mL). The percentage of organic solvent in the incubations was 1%. The human liver microsomal suspension in phosphate buffer was mixed with NADPH (1 mM) and preheated to 37° C. before test compound was added. Aliquots were taken at 0, 5, 10, 20 and 30 minutes, and reactions were terminated by addition of methanol containing analytical internal standard (IS).
The results were expressed as apparent clearance (Clapp) (mL/min/kg) and hepatic extraction ratio (Eh) (%) calculated from the rate constant (k) (min^−1) of test compound depletion.

[3] = tested on: TNF alpha release from human PBMCs; assay: Inhibition of TNF alpha release from human PBMCs; format: cell-based; settings: PBMC, LPS 1 μg/ml, 18 hours, AlphaLISA
Summary of the method: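 Fresh or thawed PBMCs in serum-free medium with 0.5% HSA, stimulated with 1 μg/ml LPS plus titrated compound for 18 h at 37° C. TNF-a in supernatant by AlphaLISA; window set with a reference PDE4 inhibitor at 100×IC50. EC50 and Emax from sigmoidal fits.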

Compound | IC50 [1] | HLM assay Eh (%) [2] | EC50 [3]
C[C@H](NC(=O)C1(O)CCC1)[C@H](Oc1ccc(C(=O)N[C@H]2CCCN(C(=O)[C@H]3COC(=O)C3)C2)nc1)c1ccc(C2CC2)cc1 [Compound 17, 5-[(1R,2S)-1-(4-cyclopropylphenyl)-2-[(1-hydroxycyclobutanecarbonyl)amino]propoxy]-N-[(3S)-1-[(3R)-5-oxotetrahydrofuran-3-carbonyl]-3-piperidyl]pyridine-2-carboxamide] | 100 to 300 nM | * (extraction ratio (Eh)>90%) | < 100 nM
C[C@H](NC(=O)C1(O)CC1)[C@H](Oc1ccc(C(=O)N[C@H]2CCCN(C(=O)[C@H]3COC(=O)C3)C2)nc1)c1ccc(C2CC2)cc1 [Compound 18, 5-[(1R,2S)-1-(4-cyclopropylphenyl)-2-[(1-hydroxycyclopropanecarbonyl)amino]propoxy]-N-[(3S)-1-[(3R)-5-oxotetrahydrofuran-3-carbonyl]-3-piperidyl]pyridine-2-carboxamide] | 100 to 300 nM | * (extraction ratio (Eh)>90%) | < 100 nM
C[C@H](NC(=O)c1cocn1)[C@H](Oc1ccc(C(=O)N[C@H]2CCCN(C(=O)[C@H]3COC(=O)C3)C2)nc1)c1ccc(C2CC2)cc1 [Compound 19, N-[(1S,2R)-2-(4-cyclopropylphenyl)-1-methyl-2-[[6-[[(3S)-1-[(3R)-5-oxotetrahydrofuran-3-carbonyl]-3-piperidyl]carbamoyl]-3-pyridyl]oxy]ethyl]oxazole-4-carboxamide] | < 100 nM | * (extraction ratio (Eh)>90%) | < 100 nM
C[C@H](NC(=O)[C@@H]1CCCO1)[C@H](Oc1ccc(C(=O)N[C@H]2CCCN(C(=O)[C@H]3COC(=O)C3)C2)nc1)c1ccc(C2CC2)cc1 [Compound 20, 5-[(1R,2S)-1-(4-cyclopropylphenyl)-2-[[(2S)-tetrahydrofuran-2-carbonyl]amino]propoxy]-N-[(3S)-1-[(3R)-5-oxotetrahydrofuran-3-carbonyl]-3-piperidyl]pyridine-2-carboxamide] | 100 to 300 nM | * (extraction ratio (Eh)>90%) | < 100 nM
C[C@H](NC(=O)[C@H]1CCCO1)[C@H](Oc1ccc(C(=O)N[C@H]2CCCN(C(=O)[C@H]3COC(=O)C3)C2)nc1)c1ccc(C2CC2)cc1 [Compound 22, 5-[(1R,2S)-1-(4-cyclopropylphenyl)-2-[[(2R)-tetrahydrofuran-2-carbonyl]amino]propoxy]-N-[(3S)-1-[(3R)-5-oxotetrahydrofuran-3-carbonyl]-3-piperidyl]pyridine-2-carboxamide] | < 100 nM | * (extraction ratio (Eh)>90%) | < 100 nM
C[C@H](NC(=O)c1ccon1)[C@H](Oc1ccc(C(=O)N[C@H]2CCCN(C(=O)[C@H]3COC(=O)C3)C2)nc1)c1ccc(C2CC2)cc1 [Compound 23, N-[(1S,2R)-2-(4-cyclopropylphenyl)-1-methyl-2-[[6-[[(3S)-1-[(3R)-5-oxotetrahydrofuran-3-carbonyl]-3-piperidyl]carbamoyl]-3-pyridyl]oxy]ethyl]isoxazole-3-carboxamide] | < 100 nM | * (extraction ratio (Eh)>90%) | < 100 nM
C[C@H](NC(=O)C(F)(F)F)[C@H](Oc1ccc(C(=O)O[C@H]2CCCN(C(=O)[C@H]3COC(=O)C3)C2)cc1)c1ccc(C2CC2)cc1 [Compound 24, [(3S)-1-[(3R)-5-oxotetrahydrofuran-3-carbonyl]-3-piperidyl] 4-[(1R,2S)-1-(4-cyclopropylphenyl)-2-[(2,2,2-trifluoroacetyl)amino]propoxy]benzoate] | < 100 nM | * (extraction ratio (Eh)>90%) | < 100 nM

Now from value to compound, other results behind:

IC50 [1] | HLM assay Eh (%) [2] | Compound | EC50 [3]
< 100 nM | * (extraction ratio (Eh)>90%) | C[C@H](NC(=O)c1cnsn1)[C@H](Oc1ccc(C(=O)O[C@H]2CCCN(C(=O)[C@H]3COC(=O)C3)C2)cc1)c1ccc(C2CC2)cc1 [Compound 25, [(3S)-1-[(3R)-5-oxotetrahydrofuran-3-carbonyl]-3-piperidyl] 4-[(1R,2S)-1-(4-cyclopropylphenyl)-2-(1,2,5-thiadiazole-3-carbonylamino)propoxy]benzoate] | < 100 nM
< 100 nM | * (extraction ratio (Eh)>90%) | Cc1cnc(C(=O)N[C@@H](C)[C@H](Oc2ccc(C(=O)O[C@H]3CCCN(C(=O)[C@H]4COC(=O)C4)C3)cc2)c2ccc(C3CC3)cc2)s1 [Compound 26, [(3S)-1-[(3R)-5-oxotetrahydrofuran-3-carbonyl]-3-piperidyl] 4-[(1R,2S)-1-(4-cyclopropylphenyl)-2-[(5-methylthiazole-2-carbonyl)amino]propoxy]benzoate] | < 100 nM
< 100 nM | * (extraction ratio (Eh)>90%) | Cc1nonc1C(=O)N[C@@H](C)[C@H](Oc1ccc(C(=O)O[C@H]2CCCN(C(=O)[C@H]3COC(=O)C3)C2)cc1)c1ccc(C2CC2)cc1 [Compound 28, [(3S)-1-[(3R)-5-oxotetrahydrofuran-3-carbonyl]-3-piperidyl] 4-[(1R,2S)-1-(4-cyclopropylphenyl)-2-[(4-methyl-1,2,5-oxadiazole-3-carbonyl)amino]propoxy]benzoate] | < 100 nM
< 100 nM | * (extraction ratio (Eh)>90%) | Cc1scnc1C(=O)N[C@@H](C)[C@H](Oc1ccc(C(=O)O[C@H]2CCCN(C(=O)[C@H]3COC(=O)C3)C2)cc1)c1ccc(C2CC2)cc1 [Compound 29, [(3S)-1-[(3R)-5-oxotetrahydrofuran-3-carbonyl]-3-piperidyl] 4-[(1R,2S)-1-(4-cyclopropylphenyl)-2-[(5-methylthiazole-4-carbonyl)amino]propoxy]benzoate] | < 100 nM
< 100 nM | * (extraction ratio (Eh)>90%) | Cc1ncsc1C(=O)N[C@@H](C)[C@H](Oc1ccc(C(=O)O[C@H]2CCCN(C(=O)[C@H]3COC(=O)C3)C2)cc1)c1ccc(C2CC2)cc1 [Compound 30, [(3S)-1-[(3R)-5-oxotetrahydrofuran-3-carbonyl]-3-piperidyl] 4-[(1R,2S)-1-(4-cyclopropylphenyl)-2-[(4-methylthiazole-5-carbonyl)amino]propoxy]benzoate] | 100 to 300 nM
< 100 nM | * (extraction ratio (Eh)>90%) | Cc1nnc(C(=O)N[C@@H](C)[C@H](Oc2ccc(C(=O)O[C@H]3CCCN(C(=O)[C@H]4COC(=O)C4)C3)cc2)c2ccc(C3CC3)cc2)o1 [Compound 31, [(3S)-1-[(3R)-5-oxotetrahydrofuran-3-carbonyl]-3-piperidyl] 4-[(1R,2S)-1-(4-cyclopropylphenyl)-2-[(5-methyl-1,3,4-oxadiazole-2-carbonyl)amino]propoxy]benzoate] | < 100 nM
< 100 nM | * (extraction ratio (Eh)>90%) | Cc1nnsc1C(=O)N[C@@H](C)[C@H](Oc1ccc(C(=O)O[C@H]2CCCN(C(=O)[C@H]3COC(=O)C3)C2)cc1)c1ccc(C2CC2)cc1 [Compound 32, [(3S)-1-[(3R)-5-oxotetrahydrofuran-3-carbonyl]-3-piperidyl] 4-[(1R,2S)-1-(4-cyclopropylphenyl)-2-[(4-methylthiadiazole-5-carbonyl)amino]propoxy]benzoate] | < 100 nM
< 100 nM | * (extraction ratio (Eh)>90%) | Cc1ncoc1C(=O)N[C@@H](C)[C@H](Oc1ccc(C(=O)O[C@H]2CCCN(C(=O)[C@H]3COC(=O)C3)C2)cc1)c1ccc(C2CC2)cc1 [Compound 33, [(3S)-1-[(3R)-5-oxotetrahydrofuran-3-carbonyl]-3-piperidyl] 4-[(1R,2S)-1-(4-cyclopropylphenyl)-2-[(4-methyloxazole-5-carbonyl)amino]propoxy]benzoate] | 100 to 300 nM
